± gives the expanded uncertainty stated by the source.
assay: xn = mol fraction of the nth substance listed; conditions: 308.15 K; 100 kPa; Liquid; Vibrating tube method; x2 = 0

In order of falling mass density:
1. CCCCCCCCCCC [undecane] + C1CC[C@H]2CCCC[C@@H]2C1  729.22 ± 0.32 kg/m3
2. CCCCCCCCCCC [undecane] + C1CC[C@H]2CCCC[C@H]2C1  729.22 ± 0.32 kg/m3

same assay, conditions: 313.15 K; 100 kPa; Liquid; Capillary tube (Ostwald / Ubbelohde) method; x2 = 0

In order of rising viscosity:
1. CCCCCCCCC [nonane] + C1CC[C@H]2CCCC[C@@H]2C1  0.571 ± 0.011 mPa·s
2. CCCCCCCCC [nonane] + C1CC[C@H]2CCCC[C@H]2C1  0.571 ± 0.011 mPa·s
3. CCCCCCCCCC [decane] + C1CC[C@H]2CCCC[C@@H]2C1  0.709 ± 0.011 mPa·s
4. CCCCCCCCCC [decane] + C1CC[C@H]2CCCC[C@H]2C1  0.709 ± 0.011 mPa·s
5. CCCCCCCCCCC [undecane] + C1CC[C@H]2CCCC[C@@H]2C1  0.862 ± 0.013 mPa·s
6. CCCCCCCCCCC [undecane] + C1CC[C@H]2CCCC[C@H]2C1  0.862 ± 0.013 mPa·s

same assay, conditions: 313.15 K; 100 kPa; Liquid; Vibrating tube method; x2 = 0

In order of falling mass density:
1. CCCCCCCCCCC [undecane] + C1CC[C@H]2CCCC[C@@H]2C1  725.51 ± 0.32 kg/m3
2. CCCCCCCCCCC [undecane] + C1CC[C@H]2CCCC[C@H]2C1  725.51 ± 0.32 kg/m3
3. CCCCCCCCCC [decane] + C1CC[C@H]2CCCC[C@@H]2C1  716.03 ± 0.23 kg/m3
4. CCCCCCCCCC [decane] + C1CC[C@H]2CCCC[C@H]2C1  716.03 ± 0.23 kg/m3
5. CCCCCCCCC [nonane] + C1CC[C@H]2CCCC[C@@H]2C1  702.35 ± 0.25 kg/m3
6. CCCCCCCCC [nonane] + C1CC[C@H]2CCCC[C@H]2C1  702.35 ± 0.25 kg/m3

same assay, conditions: 318.15 K; 100 kPa; Liquid; Capillary tube (Ostwald / Ubbelohde) method; x2 = 0

In order of rising viscosity:
1. CCCCCCCCC [nonane] + C1CC[C@H]2CCCC[C@@H]2C1  0.547 ± 0.011 mPa·s
2. CCCCCCCCC [nonane] + C1CC[C@H]2CCCC[C@H]2C1  0.547 ± 0.011 mPa·s
3. CCCCCCCCCC [decane] + C1CC[C@H]2CCCC[C@@H]2C1  0.667 ± 0.011 mPa·s
4. CCCCCCCCCC [decane] + C1CC[C@H]2CCCC[C@H]2C1  0.667 ± 0.011 mPa·s
5. CCCCCCCCCCC [undecane] + C1CC[C@H]2CCCC[C@@H]2C1  0.801 ± 0.012 mPa·s
6. CCCCCCCCCCC [undecane] + C1CC[C@H]2CCCC[C@H]2C1  0.801 ± 0.012 mPa·s

same assay, conditions: 318.15 K; 100 kPa; Liquid; Vibrating tube method; x2 = 0

In order of rising mass density:
1. CCCCCCCCC [nonane] + C1CC[C@H]2CCCC[C@@H]2C1  698.4 ± 0.25 kg/m3
2. CCCCCCCCC [nonane] + C1CC[C@H]2CCCC[C@H]2C1  698.4 ± 0.25 kg/m3
3. CCCCCCCCCC [decane] + C1CC[C@H]2CCCC[C@@H]2C1  712.2 ± 0.23 kg/m3
4. CCCCCCCCCC [decane] + C1CC[C@H]2CCCC[C@H]2C1  712.2 ± 0.23 kg/m3
5. CCCCCCCCCCC [undecane] + C1CC[C@H]2CCCC[C@@H]2C1  721.78 ± 0.32 kg/m3
6. CCCCCCCCCCC [undecane] + C1CC[C@H]2CCCC[C@H]2C1  721.78 ± 0.32 kg/m3

same assay, conditions: 323.15 K; 100 kPa; Liquid; Capillary tube (Ostwald / Ubbelohde) method; x2 = 0

In order of falling viscosity:
1. CCCCCCCCCCC [undecane] + C1CC[C@H]2CCCC[C@@H]2C1  0.749 ± 0.012 mPa·s
2. CCCCCCCCCCC [undecane] + C1CC[C@H]2CCCC[C@H]2C1  0.749 ± 0.012 mPa·s
3. CCCCCCCCCC [decane] + C1CC[C@H]2CCCC[C@@H]2C1  0.632 ± 0.011 mPa·s
4. CCCCCCCCCC [decane] + C1CC[C@H]2CCCC[C@H]2C1  0.632 ± 0.011 mPa·s
5. CCCCCCCCC [nonane] + C1CC[C@H]2CCCC[C@@H]2C1  0.521 ± 0.011 mPa·s
6. CCCCCCCCC [nonane] + C1CC[C@H]2CCCC[C@H]2C1  0.521 ± 0.011 mPa·s

same assay, conditions: 323.15 K; 100 kPa; Liquid; Vibrating tube method; x2 = 0

In order of rising mass density:
1. CCCCCCCCC [nonane] + C1CC[C@H]2CCCC[C@@H]2C1  694.43 ± 0.25 kg/m3
2. CCCCCCCCC [nonane] + C1CC[C@H]2CCCC[C@H]2C1  694.43 ± 0.25 kg/m3
3. CCCCCCCCCC [decane] + C1CC[C@H]2CCCC[C@@H]2C1  708.36 ± 0.23 kg/m3
4. CCCCCCCCCC [decane] + C1CC[C@H]2CCCC[C@H]2C1  708.36 ± 0.23 kg/m3
5. CCCCCCCCCCC [undecane] + C1CC[C@H]2CCCC[C@@H]2C1  718.04 ± 0.31 kg/m3
6. CCCCCCCCCCC [undecane] + C1CC[C@H]2CCCC[C@H]2C1  718.04 ± 0.31 kg/m3

assay: refractive index (Na D-line) (dimensionless); conditions: 298.15 K; 101.33 kPa; Liquid; Standard Abbe refractometry

In order of falling refractive index:
1. C1CC[C@H]2CCCC[C@H]2C1 [cis-decahydronaphthalene]  1.4776 ± 0.0013
2. C1CC[C@H]2CCCC[C@@H]2C1 [trans-decahydronaphthalene]  1.4662 ± 0.0012
3. CCCCCCCCCCC [undecane]  1.4138 ± 0.0013
4. CCCCCCCCCC [decane]  1.4098 ± 0.0012
5. CCCCCCCCC [nonane]  1.4026 ± 0.0013

same assay, conditions: 308.15 K; 101.33 kPa; Liquid; Standard Abbe refractometry

In order of rising refractive index:
1. CCCCCCCCC [nonane]  1.3983 ± 0.0013
2. CCCCCCCCCC [decane]  1.4052 ± 0.0012
3. C1CC[C@H]2CCCC[C@@H]2C1 [trans-decahydronaphthalene]  1.4618 ± 0.0012
4. C1CC[C@H]2CCCC[C@H]2C1 [cis-decahydronaphthalene]  1.4736 ± 0.0013

From the NIST ThermoML archive (doi:10.1021/je400250u)
